The values below come from US20250345447A1, “PHARMACEUTICAL COMPOSITION OF RECOMBINANT ANTI-HUMAN CLDN18.2 MONOCLONAL ANTIBODY-MMAE CONJUGATE” (CSPC MEGALITH BIOPHARMACEUTICAL CO., LTD., priority 2022, published 2025).

The term EC50 denotes the concentration that produces a half-maximal response.

Assay [1] deals with human pancreatic cancer Bxpc3-18.2. The assay can be described thus: Bxpc3-18.2 nude mouse xenograft tumor model, gemcitabine as control. Format: in vivo.
Description: When the tumor grew to a volume of about 100 mm^3 (day 39 after inoculation), 48 animals with good tumor growth were selected and equally divided into 6 groups (day 0) according to the tumor volume, with 8 animals in each group. […] The tumor diameters were measured twice a week, the mice were weighed, and the data were recorded. The tumor growth was dynamically observed by measuring the tumor diameters at different times after administration. The experiment was ended on day 28, the mice were asphyxiated with carbon dioxide, and then the tumors were stripped off and weighed.
Assay [2] concerns human gastric cancer NUGC-4-18.2. Put plainly: NUGC-4-18.2 nude mouse xenograft tumor model, cisplatin as control. As to conditions: 6 mg/kg i.v. qw×3, day 20.
Description: 2) In this experiment, human gastric cancer NUGC-4-18.2 was selected to construct a nude mouse xenograft tumor model. When the tumor grew to a volume of about 120 mm^3 (day 6 after inoculation), 64 animals with good tumor growth were selected and equally divided into 8 groups (day 0) according to the tumor volume, with 8 animals in each group. […] The tumor diameters were measured twice a week, the mice were weighed, and the data were recorded. The change in the tumor growth was dynamically observed by measuring the tumor diameters at different times after administration. The experiment was ended on day 20, the animals were asphyxiated with carbon dioxide, and then the tumors were stripped off and weighed.
Assay [3] concerns the target T1, cynomolgus monkey CLDN18.2 (cynomolgus monkey, UniProt A0A2K5VVB4 1-261).
T1 chain: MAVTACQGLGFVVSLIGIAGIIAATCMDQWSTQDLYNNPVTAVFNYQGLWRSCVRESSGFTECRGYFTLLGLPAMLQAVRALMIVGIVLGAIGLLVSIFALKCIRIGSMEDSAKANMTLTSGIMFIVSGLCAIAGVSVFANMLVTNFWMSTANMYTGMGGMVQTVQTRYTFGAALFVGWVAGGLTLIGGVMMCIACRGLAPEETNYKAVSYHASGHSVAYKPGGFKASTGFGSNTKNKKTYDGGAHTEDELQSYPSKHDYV
The assay can be described thus: flow cytometry on CHO-K1-cynomolgus monkey CLDN18.2 cells, four-parameter fit; given as ED50.

A further assay concerns the target mouse CLDN18.2 (mouse) (UniProt P56857). Put plainly: flow cytometry on HEK293-mouse CLDN18.2 cells, four-parameter fit; given as ED50. A general note: Flow cytometry measures light scatter and fluorescence of single cells or particles in a stream.
The target in another assay is human CLDN18.2 (human) (UniProt P56856). The assay can be described thus: flow cytometry on HEK293-human CLDN18.2 cells, four-parameter fit; given as ED50.

On to `Nc1ccn([C@@H]2O[C@H](CO)[C@@H](O)C2(F)F)c(=O)n1` [Gemcitabine, gemcitabine, reference compound], for which, in assay [1] (50 mg/kg i.v. biw×4, day 28), the “tumor weight inhibition rate” value stood at 51.0%. Besides, the “tumor growth compared with the solvent control group” value in assay [1] (SYJS001-ADC 2, 4 and 8 mg/kg single, GEM 50 mg/kg biw×4, P<0.01) is on record as “significantly inhibited”.
For the molecule `N.N.[Cl][Pt][Cl]` [cisplatin, reference compound], in assay [2], the “tumor weight inhibition rate” value is 66.5%.

B1: SYJS001-ADC (recombinant anti-human CLDN18.2 monoclonal antibody-MMAE conjugate) (antibody, human IgG1, kappa, V domains shown)
VH: EVQLSESGGALVQPGESLRLSCAASGFTFSSYAMTWVRQAPGKGLEWVSSLSGSGRSTYYAASIKGRFTISRDNSKNTLYLQMSSLRAEDTAIYYCAKSLSYYHYYFDYWGQGTLVTVSS
VL: DIQLTQSPSFLSASVGDRVPITCRASQDISNYLAWYQQKPGKAPKLLIYSASTLQSGVPSRFSGSGSGTEFTLTISSLQPEDFASYHCQQVKTYPLTFGGGTKVEIKR
modifications: one molecule of MMAE conjugated via the linker NH2-PEG3-Val-Cit (LND1002) by an amide (isopeptide) bond to Q298 (i.e., Q295 according to Kabat numbering) of each heavy chain; mean DAR 2.0
notes: also called anti-CLDN18.2 antibody-drug conjugate SYJS001-ADC
In the case of B1, the values for the EC50 (in assay [3]; with mouse CLDN18.2 (mouse); with human CLDN18.2 (human)) were 0.648 µg/mL, 0.717 µg/mL and 0.439 µg/mL, respectively.
